Measurements taken from US8512757B2, “Micelles for drug delivery” (Agency for Science, Techology and Research, priority 2006, dated 2013).

Key:
[1] = tested on: 4T1 mouse breast cancer cells; test: Cytotoxicity test (MTT); assay type: cell-based; details: 4T1 cells, 48 hours, 37° C.
Description: 4T1 mouse breast cancer cells were cultured in RPMI 1640 (without folate) supplemented with 10% FBS, 5% penicillin, 2 mM L-glutamine (Sigma), and incubated at 37° C., 5% CO2. The cells were seeded onto 96-well plates at 10,000 cells per well, and incubated for one day. […] The media in the wells were replaced with 100 μL of the pre-prepared samples. The plates were then returned to the incubator and maintained in 5% CO2, at 37° C. for 48 hours. Fresh growth media and 10 μL aliquots of MTT solution were used to replace the mixture in each well after 48 hours. The plates were then returned to the incubator and maintained in 5% CO2, at 37° C., for a further 3 hours. The growth medium and excess MTT in each well were then removed. DMSO (150 μL) was then added to each well to dissolve the internalised purple formazan crystals. An aliquot of 100 μL was taken from each well and transferred to a fresh 96-well plate. Each sample was tested in eight replicates per plate. Three plates were used, making a total of 24 replicates per sample. The plates were then assayed at 550 nm and 690 nm. The absorbance readings of the formazan crystals were taken to be that at 550 nm subtracted by that at 690 nm. The results were expressed as a percentage of the absorbance of the blank control.

[2] = Biodistribution in mice bearing subcutaneous 4T1 breast tumours; assay type: in vivo; details: 5 mg/kg DOX
Description: Female balb/c (body weight: 19-21 g) were subcutaneously implanted with 4T1 cells (10^7 cells per animal). Tumours were allowed to grow for 2 weeks. Free DOX and DOX-loaded micelles were administrated to the animals by tail vein injection at an equivalent DOX dose of 5 mg/kg. At 10 minutes, 30, minutes, 2 hours and 4 hours, blood samples were taken, and the animals were sacrificed. The liver, lung, heart, spleen, kidney and tumour were removed, and kept at −80° C. for future analysis. The organs were weighted and homogenized. DOX distributed in different organs was extracted using chloroform and isopropanol, and analyzed as described by H. S. Yoo, T. G. Park, J. Control. Rel. 2004, 100, 247. Homogenized tissue was added into an acidic hydrolysis buffer containing 2.0 M HCl solution at 80° C. for 10 minutes. The supernatant was collected, and 0.9 mL of the mixture of chloroform and isopropanol (3:1 in volume) was then added. After vortex-mixing, the organic layer was collected by centrifugation at 16,000 rpm for 15 minutes at room temperature. The solution was dried, and re-dissolved in a mobile phase and analyzed by high performance liquid chromatography (HPLC). The recovery rate was 70%, and corrected by an internal standard. The HPLC system consisted of a Waters 2690 separation module and Waters 2475 multi λ fluorescence detector. […] The DOX peak was detected at an excitation wavelength of 480 nm and an emission wavelength of 580 nm.

[3] = tested on: 4T1 cells; test: Cellular distribution and uptake of DOX by confocal microscopy; assay type: cell-based, mouse; details: DOX 10 mg/L, 4 hours
Description: Free DOX (10 mg/L) and DOX-loaded micelles (DOX content: 10 mg/L) in RPMI 1640 medium (without folate) were incubated with 4T1 cells for 4 hours before examination. The cells on the cover glass were thoroughly washed three times with PBS and visualized by CLSM (Olympus FV300, Japan). DOX was excited at 532 nm with emission at 595 nm. The laser power was 10%. All the observations were conducted using the same resolution.

[4] = tail vein injection, 4T1 tumour

With COc1cccc2c1C(=O)c1c(O)c3c(c(O)c1C2=O)C[C@@](O)(C(=O)CO)C[C@@H]3O[C@H]1C[C@H](N)[C@H](O)[C@H](C)O1.Cl [free DOX, Doxorubicin hydrochloride] the “IC50 value of DOX” value [1] was 3.0 µg/mL, the “organ distribution of DOX” value ([2]; spleen, kidney, heart, liver and lung) was “accumulating uniformly in the heart, lung and liver” and the “t1/2 in the blood” value ([2]; tail vein injection) was “about 30 minutes”. For the same compound, the “maximum DOX level in tumour tissue” value [2, 4] was 2.9 µg/g, the “time at which maximum DOX level in tumour was reached” value [2, 4] was 30 min and the “DOX level in tumour tissue at 240 minutes” value ([2]; tail vein injection, 240 minutes) was 1.0 µg/g. The “cellular distribution of DOX” value [3] was “only accumulated in the nucleus”.
